system: HSV2; assay: Viral qPCR assay, HSV2; type: cell-based; settings: infected cells, ~72 hrs, viral genome copies by qPCR normalized to PPIA; read-out: HSV2 Cell EC50
How it was run: (§1)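 MRC5, Vero or MeWo cells were infected in suspension and added to compounds in a 10-point, 3-fold dilution series, then incubated ~72 hrs at 37° C. Lysates were proteinase K-treated, and viral genome copies were quantified by TaqMan qPCR against a plasmid standard curve and normalized to PPIA. EC50 came from a 4-parameter fit.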

Structure (SMILES)	EC50
Cc1nc2cc(-c3cnn(C(F)F)c3)c(O[C@H]3CCN4C(=O)OC[C@@H]4C3)cc2c(=O)n1Cc1ccc(C#N)cc1 [Example 6]	29 nM
Cc1nc2cc(-c3cn(C(F)F)nn3)c(O[C@H]3CCN4C(=O)OC[C@@H]4C3)cc2c(=O)n1Cc1ccc(Cl)cc1 [Example 12]	61 nM
Cc1nc2cc(C3CC(O)C3)c(O[C@H]3CCN4C(=O)OC[C@@H]4C3)cc2c(=O)n1Cc1ccc(Cl)cc1 (single isomer, unassigned) [Example 61]	202 nM
N#Cc1ccc(Cn2c(=O)[nH]c3cc(-c4cnco4)c(O[C@H]4CCN5C(=O)OC[C@@H]5C4)cc3c2=O)cc1 [Example 10]	68 nM
Cc1nc2cc(C3CC(O)C3)c(O[C@H]3CCN4C(=O)OC[C@@H]4C3)cc2c(=O)n1Cc1ccc(Cl)cc1 (single isomer, unassigned) [Example 62]	57 nM
COc1ccc(-c2cc3nc(C)n(Cc4ccc(Cl)cc4)c(=O)c3cc2O[C@H]2CCN3C(=O)OC[C@@H]3C2)nn1 [Example 14]	268 nM
O=C1OC[C@@H]2C[C@@H](Oc3cc4c(=O)n(Cc5ccc(Cl)cc5)cnc4nc3-c3cnco3)CCN12 [Example 7]	89 nM
Cc1nc2cc(-c3ccn(C(F)F)n3)c(O[C@H]3CCN4C(=O)OC[C@@H]4C3)cc2c(=O)n1Cc1ccc(Cl)cc1 [Example 13]	38 nM

biological target: varicella zoster virus DNA polymerase (Varicella-zoster virus (strain Dumas) (HHV-3) (Human herpesvirus 3), UniProt P09252); assay: VZV polymerase assay (AlphaLISA); type: biochemical; settings: VZV polymerase 0.4 nM, 30 min pre-incubation, 60 minute at 37° C.
Experimental: (§2) Human cytomegalovirus and varicella zoster virus DNA polymerases were expressed via baculovirus vector in SF21 cells and purified. Heterodimeric nucleic acid substrate used in the herpesvirus polymerase reactions were generated by annealing a 59-mer template to a 17-mer digoxigenin-labeled primer. Polymerase (HCMV final concentration of 0.2 nM; VZV final concentration of 0.4 nM) was combined with an inhibitor compound or DMSO in assay buffer (10 mM HEPES, pH 7.5, 25 mM KCl, 25 mM NaCl, 5 mM MgCl2, 5% glycerol, 0.67 mg/ml bovine serum albumin, and 1 mM tris(2-carboxyethyl)phosphine)), and this mixture was pre-incubated for 30 minutes at room temperature in 384-well microtiter plates. The polymerization reaction was initiated by the addition of template/primer substrate (final concentration: 1.6 nM), and dNTPs (final concentration: 24 nM dCTP, 24 nMdGTP, 16 nM dATP, 16 nM dTTP, and 0.8 nM biotin-dUTP). After a 60 minute incubation period at 37° C., the reactions were terminated using quench buffer (25 mM HEPES pH 7.5, 100 mM NaCl, 0.25% Tween-20, 12 mM EDTA, and 1 mg/ml bovine serum albumin). Incorporation of biotinylated UTP was detected with 2.5-5 μg/mL anti-DIG AlphaLISA acceptor beads and 5-10 μg/mL streptavidin AlphaLISA donor beads (PerkinElmer). Compound effects were normalized to the window defined by the controls (DMSO only and pre-quenched wells), and were fit using a 4-parameter algorithm to report an IC50.

Structure (SMILES)	IC50
Cc1nc2cc(-c3cnn(C(F)F)c3)c(O[C@H]3CCN4C(=O)OC[C@@H]4C3)cc2c(=O)n1Cc1ccc(C#N)cc1 [Example 6]	5 nM
Cc1nc2cc(-c3cn(C(F)F)nn3)c(O[C@H]3CCN4C(=O)OC[C@@H]4C3)cc2c(=O)n1Cc1ccc(Cl)cc1 [Example 12]	0.47 nM
Cc1nc2cc(C3CC(O)C3)c(O[C@H]3CCN4C(=O)OC[C@@H]4C3)cc2c(=O)n1Cc1ccc(Cl)cc1 (single isomer, unassigned) [Example 61]	11 nM
N#Cc1ccc(Cn2c(=O)[nH]c3cc(-c4cnco4)c(O[C@H]4CCN5C(=O)OC[C@@H]5C4)cc3c2=O)cc1 [Example 10]	0.28 nM
Cc1nc2cc(C3CC(O)C3)c(O[C@H]3CCN4C(=O)OC[C@@H]4C3)cc2c(=O)n1Cc1ccc(Cl)cc1 (single isomer, unassigned) [Example 62]	4.8 nM
COc1ccc(-c2cc3nc(C)n(Cc4ccc(Cl)cc4)c(=O)c3cc2O[C@H]2CCN3C(=O)OC[C@@H]3C2)nn1 [Example 14]	14 nM
O=C1OC[C@@H]2C[C@@H](Oc3cc4c(=O)n(Cc5ccc(Cl)cc5)cnc4nc3-c3cnco3)CCN12 [Example 7]	9.2 nM
Cc1nc2cc(-c3ccn(C(F)F)n3)c(O[C@H]3CCN4C(=O)OC[C@@H]4C3)cc2c(=O)n1Cc1ccc(Cl)cc1 [Example 13]	3.5 nM

biological target: Human cytomegalovirus DNA polymerase (Human cytomegalovirus (strain AD169) (HHV-5) (Human herpesvirus 5), UniProt P08546); assay: CMV polymerase assay (AlphaLISA); type: biochemical; settings: HCMV polymerase 0.2 nM, 30 min pre-incubation, 60 minute at 37° C.
Experimental: as §2

Structure (SMILES)	IC50
Cc1nc2cc(-c3cnn(C(F)F)c3)c(O[C@H]3CCN4C(=O)OC[C@@H]4C3)cc2c(=O)n1Cc1ccc(C#N)cc1 [Example 6]	1.8 nM
Cc1nc2cc(-c3cn(C(F)F)nn3)c(O[C@H]3CCN4C(=O)OC[C@@H]4C3)cc2c(=O)n1Cc1ccc(Cl)cc1 [Example 12]	0.47 nM
Cc1nc2cc(C3CC(O)C3)c(O[C@H]3CCN4C(=O)OC[C@@H]4C3)cc2c(=O)n1Cc1ccc(Cl)cc1 (single isomer, unassigned) [Example 61]	6.5 nM
N#Cc1ccc(Cn2c(=O)[nH]c3cc(-c4cnco4)c(O[C@H]4CCN5C(=O)OC[C@@H]5C4)cc3c2=O)cc1 [Example 10]	0.24 nM
Cc1nc2cc(C3CC(O)C3)c(O[C@H]3CCN4C(=O)OC[C@@H]4C3)cc2c(=O)n1Cc1ccc(Cl)cc1 (single isomer, unassigned) [Example 62]	1 nM
COc1ccc(-c2cc3nc(C)n(Cc4ccc(Cl)cc4)c(=O)c3cc2O[C@H]2CCN3C(=O)OC[C@@H]3C2)nn1 [Example 14]	13 nM
O=C1OC[C@@H]2C[C@@H](Oc3cc4c(=O)n(Cc5ccc(Cl)cc5)cnc4nc3-c3cnco3)CCN12 [Example 7]	4.6 nM
Cc1nc2cc(-c3ccn(C(F)F)n3)c(O[C@H]3CCN4C(=O)OC[C@@H]4C3)cc2c(=O)n1Cc1ccc(Cl)cc1 [Example 13]	1 nM

system: CMV; assay: Viral qPCR assay, CMV; type: cell-based; settings: infected cells, ~72 hrs, viral genome copies by qPCR normalized to PPIA; read-out: CMV Cell EC50
How it was run: as §1

Structure (SMILES)	EC50
Cc1nc2cc(-c3cnn(C(F)F)c3)c(O[C@H]3CCN4C(=O)OC[C@@H]4C3)cc2c(=O)n1Cc1ccc(C#N)cc1 [Example 6]	56 nM
Cc1nc2cc(-c3cn(C(F)F)nn3)c(O[C@H]3CCN4C(=O)OC[C@@H]4C3)cc2c(=O)n1Cc1ccc(Cl)cc1 [Example 12]	112 nM
Cc1nc2cc(C3CC(O)C3)c(O[C@H]3CCN4C(=O)OC[C@@H]4C3)cc2c(=O)n1Cc1ccc(Cl)cc1 (single isomer, unassigned) [Example 61]	173 nM
N#Cc1ccc(Cn2c(=O)[nH]c3cc(-c4cnco4)c(O[C@H]4CCN5C(=O)OC[C@@H]5C4)cc3c2=O)cc1 [Example 10]	70 nM
Cc1nc2cc(C3CC(O)C3)c(O[C@H]3CCN4C(=O)OC[C@@H]4C3)cc2c(=O)n1Cc1ccc(Cl)cc1 (single isomer, unassigned) [Example 62]	57 nM
COc1ccc(-c2cc3nc(C)n(Cc4ccc(Cl)cc4)c(=O)c3cc2O[C@H]2CCN3C(=O)OC[C@@H]3C2)nn1 [Example 14]	280 nM
O=C1OC[C@@H]2C[C@@H](Oc3cc4c(=O)n(Cc5ccc(Cl)cc5)cnc4nc3-c3cnco3)CCN12 [Example 7]	104 nM
Cc1nc2cc(-c3ccn(C(F)F)n3)c(O[C@H]3CCN4C(=O)OC[C@@H]4C3)cc2c(=O)n1Cc1ccc(Cl)cc1 [Example 13]	49 nM

system: HSV1; assay: Viral qPCR assay, HSV1; type: cell-based; settings: infected cells, ~72 hrs, viral genome copies by qPCR normalized to PPIA; read-out: HSV1 Cell EC50
How it was run: as §1

Structure (SMILES)	EC50
Cc1nc2cc(-c3cnn(C(F)F)c3)c(O[C@H]3CCN4C(=O)OC[C@@H]4C3)cc2c(=O)n1Cc1ccc(C#N)cc1 [Example 6]	47 nM
Cc1nc2cc(-c3cn(C(F)F)nn3)c(O[C@H]3CCN4C(=O)OC[C@@H]4C3)cc2c(=O)n1Cc1ccc(Cl)cc1 [Example 12]	73 nM
Cc1nc2cc(C3CC(O)C3)c(O[C@H]3CCN4C(=O)OC[C@@H]4C3)cc2c(=O)n1Cc1ccc(Cl)cc1 (single isomer, unassigned) [Example 61]	250 nM
N#Cc1ccc(Cn2c(=O)[nH]c3cc(-c4cnco4)c(O[C@H]4CCN5C(=O)OC[C@@H]5C4)cc3c2=O)cc1 [Example 10]	109 nM
Cc1nc2cc(C3CC(O)C3)c(O[C@H]3CCN4C(=O)OC[C@@H]4C3)cc2c(=O)n1Cc1ccc(Cl)cc1 (single isomer, unassigned) [Example 62]	113 nM
COc1ccc(-c2cc3nc(C)n(Cc4ccc(Cl)cc4)c(=O)c3cc2O[C@H]2CCN3C(=O)OC[C@@H]3C2)nn1 [Example 14]	374 nM
O=C1OC[C@@H]2C[C@@H](Oc3cc4c(=O)n(Cc5ccc(Cl)cc5)cnc4nc3-c3cnco3)CCN12 [Example 7]	118 nM
Cc1nc2cc(-c3ccn(C(F)F)n3)c(O[C@H]3CCN4C(=O)OC[C@@H]4C3)cc2c(=O)n1Cc1ccc(Cl)cc1 [Example 13]	37 nM

From patent US12497405B2, “Bicyclic heterocycle compounds methods of use thereof for the treatment of herpes viruses” (Merck Sharp & Dohme LLC, priority 2019, dated 2025)
